Assay results reported in ChEMBL document CHEMBL5385891, “Design and discovery of novel dipeptide boronic acid ester proteasome inhibitors, an oral slowly-released prodrug for the treatment of multiple myeloma” (Eur J Med Chem, 2023).

Assays:
RPMI-8226 [1] = assay: Cytotoxicity against human RPMI-8226 cells assessed as inhibition of cell proliferation incubated for 72 hrs by Cell Titer-Glo luminescence assay; format: functional, cell-based; conditions: RPMI-8226, 72 h
20S proteasome = assay: Inhibition of human 20S proteasome chymotrypsin-like activity using Suc-Leu-Leu-Val-Tyr-AMC as fluorogenic peptide pre-incubated for 10 mins with compound followed by substrate addition for 60 mins by spectrofluorimetric analysis; format: protein-complex assay
[2] = Stability of the compound in stimulated […] fluid at pH 1.2 measured after 1 min; format: ADME; conditions: simulated gi fluid, pH 1.2, 1 min
[3] = Toxicity in Balb/c mouse xenografted with human RPMI-8226 cells assessed as body weight loss at 6 mg/kg,po administrated biweekly for 21 days; format: organism-based; conditions: in vivo, 504 h, time 21 day
[4] = Stability of the compound in stimulated […] fluid at pH 1.2 measured after 2 hrs; format: ADME; conditions: simulated gi fluid, pH 1.2, 2 h
[5] = Stability of the compound in stimulated […] fluid at pH 1.2 measured after 4 hrs; format: ADME; conditions: simulated gi fluid, pH 1.2, 4 h
[6] = Stability of the compound in stimulated […] fluid at pH 6.8 measured after 4 hrs; format: ADME; conditions: simulated intestinal fluid, read-out: Stability
[7] = Stability of the compound in stimulated […] fluid at pH 6.8 measured after 8 hrs; format: ADME; conditions: simulated intestinal fluid, read-out: Stability
[8] = Stability of the compound in stimulated […] fluid at pH 6.8 measured after 1 min; format: ADME; conditions: simulated intestinal fluid, read-out: Stability
[9] = Stability of the compound in stimulated […] fluid at pH 6.8 measured after 12 hrs; format: ADME; conditions: simulated intestinal fluid, read-out: Stability
[10] = Stability of the compound in stimulated […] fluid at pH 1.2 measured after 8 hrs; format: ADME; conditions: simulated gi fluid, pH 1.2, 8 h
[11] = Toxicity in Balb/c mouse xenografted with human RPMI-8226 cells assessed as body weight loss at 10 mg/kg,po administrated biweekly for 21 days; format: organism-based; conditions: in vivo, 504 h, time 21 day
RPMI-8226 [12] = assay: Antitumor activity against human RPMI-8226 cells xenografted in Balb/c mouse assessed as tumor growth inhibition at po administration biweekly for 21 days; format: functional, organism-based; conditions: time 21.0 day
[13] = Stability of the compound in stimulated […] fluid at pH 6.8 measured after 2 hrs; format: ADME; conditions: simulated intestinal fluid, read-out: Stability
[14] = Stability of the compound in stimulated […] fluid at pH 1.2 measured after 12 hrs; format: ADME; conditions: simulated gi fluid, pH 1.2, 12 h
[15] = Tmax in Sprague-Dawley rat at 1.2 mg/kg,IG measured upto 24 hrs by LC-MS/MS analysis; format: ADME, organism-based; conditions: in vivo, po
[16] = Half life in Sprague-Dawley rat at 0.4 mg/kg,iv measured upto 24 hrs by LC-MS/MS analysis; format: ADME, organism-based; conditions: in vivo
[17] = Intrinsic clearance in monkey liver microsomes at 1 uM incubated for 2 to 60 mins in presence of NADPH by LC-MS/MS analysis; format: ADME, Macaca mulatta, Microsome; conditions: rhesus monkey, time 2-60 min, read-out: CLH
[18] = AUC (0-t) in Sprague-Dawley rat at 0.4 mg/kg,iv measured upto 24 hrs by LC-MS/MS analysis; format: ADME, organism-based; parameters: time < 24 hrs, dose 0.4 mg/kg, route iv; conditions: in vivo
[19] = Half life in monkey liver microsomes at 1 uM incubated for 2 to 60 mins in presence of NADPH by LC-MS/MS analysis; format: ADME, Macaca mulatta, Microsome; conditions: rhesus monkey, time 2-60 min
[20] = Half life in dog liver microsomes at 1 uM incubated for 2 to 60 mins in presence of NADPH by LC-MS/MS analysis; format: ADME, Canis lupus familiaris, Microsome; conditions: time 2-60 min
[21] = molecular target: Voltage-gated inwardly rectifying potassium channel KCNH2 (Homo sapiens, UniProt Q12809); assay: Inhibition of human ERG expressed in HEK293 cells; format: toxicity, cell-based
Sequence of Voltage-gated inwardly rectifying potassium channel KCNH2 (Q12809 whole entry): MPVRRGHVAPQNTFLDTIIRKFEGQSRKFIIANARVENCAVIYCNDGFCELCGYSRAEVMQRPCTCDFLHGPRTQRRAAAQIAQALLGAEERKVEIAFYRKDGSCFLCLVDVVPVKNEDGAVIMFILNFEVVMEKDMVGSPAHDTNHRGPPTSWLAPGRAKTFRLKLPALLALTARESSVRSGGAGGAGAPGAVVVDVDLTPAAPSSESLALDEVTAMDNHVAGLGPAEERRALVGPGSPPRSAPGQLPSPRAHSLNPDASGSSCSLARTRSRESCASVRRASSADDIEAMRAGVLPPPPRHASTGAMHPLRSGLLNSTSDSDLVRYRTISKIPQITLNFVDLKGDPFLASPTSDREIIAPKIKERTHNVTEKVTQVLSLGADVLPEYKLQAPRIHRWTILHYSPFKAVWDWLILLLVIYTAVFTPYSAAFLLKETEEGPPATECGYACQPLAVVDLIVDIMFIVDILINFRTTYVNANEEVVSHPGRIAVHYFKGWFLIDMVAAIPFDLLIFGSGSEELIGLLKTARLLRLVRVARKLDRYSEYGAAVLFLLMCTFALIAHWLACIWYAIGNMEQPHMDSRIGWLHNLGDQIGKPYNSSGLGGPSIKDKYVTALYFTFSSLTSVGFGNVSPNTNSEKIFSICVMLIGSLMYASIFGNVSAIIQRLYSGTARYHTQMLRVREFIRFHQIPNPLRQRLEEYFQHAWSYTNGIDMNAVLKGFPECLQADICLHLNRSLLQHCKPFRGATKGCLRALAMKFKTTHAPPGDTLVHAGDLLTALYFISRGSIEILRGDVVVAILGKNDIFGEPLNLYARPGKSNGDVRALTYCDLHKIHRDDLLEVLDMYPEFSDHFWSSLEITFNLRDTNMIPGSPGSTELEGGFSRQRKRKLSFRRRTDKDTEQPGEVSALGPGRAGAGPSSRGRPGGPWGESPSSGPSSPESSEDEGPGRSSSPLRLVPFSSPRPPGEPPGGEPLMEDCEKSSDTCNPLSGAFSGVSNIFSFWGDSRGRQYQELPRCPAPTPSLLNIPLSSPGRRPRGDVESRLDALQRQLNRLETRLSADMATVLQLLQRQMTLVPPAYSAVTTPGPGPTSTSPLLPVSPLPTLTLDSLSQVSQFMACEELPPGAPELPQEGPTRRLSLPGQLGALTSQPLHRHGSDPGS

[22] = Half life in human liver microsomes at 1 uM incubated for 2 to 60 mins in presence of NADPH by LC-MS/MS analysis; format: ADME, Microsome; conditions: time 2-60 min
[23] = Half life in Sprague-Dawley rat at 1.2 mg/kg,IG measured upto 24 hrs by LC-MS/MS analysis; format: ADME, organism-based; conditions: in vivo, po
[24] = AUC(0-t) in Sprague-Dawley rat at 1.2 mg/kg,IG measured upto 24 hrs by LC-MS/MS analysis; format: ADME, organism-based; parameters: dose 1.2 mg/kg, time < 24 hrs, route ig; conditions: in vivo, po
[25] = Intrinsic clearance in human liver microsomes at 1 uM incubated for 2 to 60 mins in presence of NADPH by LC-MS/MS analysis; format: ADME, Microsome; conditions: time 2-60 min, read-out: CLH
[26] = Half life in mouse liver microsomes at 1 uM incubated for 2 to 60 mins in presence of NADPH by LC-MS/MS analysis; format: ADME, Microsome; conditions: time 2-60 min
[27] = Intrinsic clearance in rat liver microsomes at 1 uM incubated for 2 to 60 mins in presence of NADPH by LC-MS/MS analysis; format: ADME, Microsome; conditions: time 2-60 min, read-out: CLH
[28] = Oral bioavailability in Sprague-Dawley rat at 1.2 mg/kg measured upto 24 hrs by LC-MS/MS analysis; format: ADME, organism-based; conditions: in vivo
[29] = Intrinsic clearance in dog liver microsomes at 1 uM incubated for 2 to 60 mins in presence of NADPH by LC-MS/MS analysis; format: ADME, Canis lupus familiaris, Microsome; conditions: time 2-60 min, read-out: CLH
[30] = Cmax in Sprague-Dawley rat at 1.2 mg/kg,IG measured upto 24 hrs by LC-MS/MS analysis; format: ADME, organism-based; parameters: time < 24 hrs, dose 1.2 mg/kg, route ig; conditions: in vivo, po
[31] = Half life in rat liver microsomes at 1 uM incubated for 2 to 60 mins in presence of NADPH by LC-MS/MS analysis; format: ADME, Microsome; conditions: time 2-60 min
[32] = Intrinsic clearance in mouse liver microsomes at 1 uM incubated for 2 to 60 mins in presence of NADPH by LC-MS/MS analysis; format: ADME, Microsome; conditions: time 2-60 min, read-out: CLH

CC(C)C[C@H](NC(=O)CNC(=O)c1cc(C(F)(F)F)ccc1C(F)(F)F)B(O)O
IC50 (RPMI-8226 [1]): 18.4 nM
IC50 (20S proteasome): 5.2 nM

CC(C)C[C@H](NC(=O)C(NC(=O)c1cc(C(F)(F)F)ccc1C(F)(F)F)C1CCCC1)B(O)O (some centres not stated)
IC50 (RPMI-8226 [1]): 6.9 nM
IC50 (20S proteasome): 6 nM

CC(C)C[C@H](NC(=O)C(NC(=O)c1cc(C(F)(F)F)ccc1C(F)(F)F)C1CCCC1)B1OC2C3OC(CC3C(=O)O)C2(C)O1 (some centres not stated)
IC50 (RPMI-8226 [1]): 13.6 nM
IC50 (20S proteasome): 2.4 nM

COc1ccc(OC)c(C(=O)NCC(=O)N[C@@H](CC(C)C)B(O)O)c1
IC50 (RPMI-8226 [1]): 57.9 nM
IC50 (20S proteasome): 15.8 nM

CC(C)C[C@H](NC(=O)C1(NC(=O)c2cc(C(F)(F)F)ccc2C(F)(F)F)CCCC1)B(O)O
IC50 (20S proteasome): 285 nM

CC(C)C[C@H](NC(=O)CNC(=O)c1cc(Cl)ccc1Cl)B(O)O [IXAZOMIB]
Stability [2]: 100%
Activity [3]: Non-Toxic
Stability [4]: 100%
Stability [5]: 100%
IC50 (RPMI-8226 [1]): 7.4 nM
remaining at 4 h [6]: 100%
remaining at 8 h [7]: 100%
remaining at 1 min [8]: 12.6%
remaining at 12 h [9]: 100%
Stability [10]: 100%
Activity [11]: Non-Toxic
Activity (RPMI-8226 [12]): Dose-Dependent Effect
remaining at 2 h [13]: 100%
Stability [14]: 100%

CC(C)C[C@H](NC(=O)C(CC1CC1)NC(=O)c1cc(C(F)(F)F)ccc1C(F)(F)F)B1OC2C3OC(CC3C(=O)O)C2(C)O1 (some centres not stated)
Tmax [15]: 49.8 min
Stability [2]: 6.44%
half-life [16]: 1450 min
Activity [3]: Non-Toxic
microsomal CLint at 1 µM [17]: 158 µL/min/mg
Stability [4]: 59.73%
Stability [5]: 58.25%
IC50 (RPMI-8226 [1]): 5.6 nM
remaining at 4 h [6]: 3.98%
remaining at 8 h [7]: 5.24%
IC50 (20S proteasome): 2.2 nM
AUC(0-t) at 24 h [18]: 2270 ng·h/mL
remaining at 1 min [8]: 2.27%
half-life at 1 µM [19]: 8.8 min
half-life at 1 µM [20]: 72.9 min
IC50 [21]: > 30000 nM
half-life at 1 µM [22]: 28.3 min
half-life [23]: 1800 min
AUC(0-t) at 24 h [24]: 2680 ng·h/mL
remaining at 12 h [9]: 6.77%
microsomal CLint at 1 µM [25]: 49 µL/min/mg
half-life at 1 µM [26]: 28.3 min
microsomal CLint at 1 µM [27]: 55 µL/min/mg
Stability [10]: 58.68%
Activity [11]: Non-Toxic
Activity (RPMI-8226 [12]): Dose-Dependent Effect
bioavailability [28]: 34%
remaining at 2 h [13]: 3.55%
microsomal CLint at 1 µM [29]: 19 µL/min/mg
Stability [14]: 59.68%
Cmax [30]: 174 ng/mL
half-life at 1 µM [31]: 25.2 min
microsomal CLint at 1 µM [32]: 49 µL/min/mg

CC(C)C[C@H](NC(=O)CNC(=O)c1cc(Cl)ccc1Cl)B1OC2C3CC(C(=O)O)C(O3)C2O1 (some centres not stated)
Stability [2]: 14.06%
Stability [4]: 83.62%
Stability [5]: 82.49%
IC50 (RPMI-8226 [1]): 4.4 nM
remaining at 4 h [6]: 19.8%
remaining at 8 h [7]: 19.6%
IC50 (20S proteasome): 6.3 nM
remaining at 1 min [8]: 21%
remaining at 12 h [9]: 19.9%
Stability [10]: 78.47%
remaining at 2 h [13]: 23.9%
Stability [14]: 83.15%

CC(C)C[C@H](NC(=O)CNC(=O)c1cc(Cl)ccc1Cl)B1OC2C3OC(C4C(=O)NC(=O)C34)C2(C)O1 (some centres not stated)
Stability [2]: 70.91%
Stability [4]: 67.8%
Stability [5]: 70.5%
IC50 (RPMI-8226 [1]): 6.8 nM
remaining at 4 h [6]: 11.4%
remaining at 8 h [7]: 13.5%
IC50 (20S proteasome): 22.4 nM
remaining at 1 min [8]: 15%
remaining at 12 h [9]: 10.8%
Stability [10]: 66.14%
remaining at 2 h [13]: 11.4%
Stability [14]: 66.9%

CC(C)C[C@H](NC(=O)CNC(=O)c1cc(Br)ccc1Br)B(O)O
IC50 (RPMI-8226 [1]): 14.7 nM
IC50 (20S proteasome): 4 nM
